Experimental data reported in ChEMBL document CHEMBL2439979 (Bioorg Med Chem Lett, 2013).
pKi: −log10 of the molar value.

Tests used:
[1] = target: T1, Muscarinic acetylcholine receptor M1 (Homo sapiens, UniProt P11229); assay: Displacement of [3H]NMS from human muscarinic M1 receptor expressed in CHO cells
T1 sequence (P11229 whole entry): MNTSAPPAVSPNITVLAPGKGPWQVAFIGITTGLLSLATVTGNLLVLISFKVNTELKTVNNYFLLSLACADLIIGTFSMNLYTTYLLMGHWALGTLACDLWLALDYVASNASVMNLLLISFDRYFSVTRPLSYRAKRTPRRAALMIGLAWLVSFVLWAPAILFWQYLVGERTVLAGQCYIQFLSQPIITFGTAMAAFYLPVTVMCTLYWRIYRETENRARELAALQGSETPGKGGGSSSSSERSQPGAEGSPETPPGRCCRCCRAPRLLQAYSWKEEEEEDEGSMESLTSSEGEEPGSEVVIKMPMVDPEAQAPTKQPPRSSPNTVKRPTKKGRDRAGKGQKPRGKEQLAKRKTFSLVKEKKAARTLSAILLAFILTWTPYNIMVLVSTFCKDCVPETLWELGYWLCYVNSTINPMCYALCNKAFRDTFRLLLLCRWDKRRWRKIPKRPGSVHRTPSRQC

[2] = target: T2, Muscarinic acetylcholine receptor M4 (Homo sapiens, UniProt P08173); assay: Displacement of [3H]NMS from human muscarinic M4 receptor expressed in CHO cells
T2 sequence (P08173 whole entry): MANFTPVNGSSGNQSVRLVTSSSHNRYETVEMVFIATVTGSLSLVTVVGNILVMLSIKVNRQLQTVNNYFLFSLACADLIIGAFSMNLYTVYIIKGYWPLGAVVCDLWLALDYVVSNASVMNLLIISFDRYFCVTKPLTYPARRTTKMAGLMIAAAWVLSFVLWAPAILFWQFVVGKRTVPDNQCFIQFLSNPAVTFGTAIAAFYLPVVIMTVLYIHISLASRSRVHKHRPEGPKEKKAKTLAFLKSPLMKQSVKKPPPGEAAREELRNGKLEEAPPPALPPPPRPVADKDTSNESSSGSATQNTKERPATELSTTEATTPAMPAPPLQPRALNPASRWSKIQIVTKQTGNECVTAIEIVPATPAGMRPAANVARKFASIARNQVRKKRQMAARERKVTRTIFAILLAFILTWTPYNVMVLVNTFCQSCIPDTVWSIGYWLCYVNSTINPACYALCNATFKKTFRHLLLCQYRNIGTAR

[3] = target: Muscarinic acetylcholine receptor M3 (Homo sapiens, UniProt P20309); assay: Displacement of [3H]NMS from human muscarinic M3 receptor expressed in CHO cells
Muscarinic acetylcholine receptor M3, sequence (P20309 whole entry): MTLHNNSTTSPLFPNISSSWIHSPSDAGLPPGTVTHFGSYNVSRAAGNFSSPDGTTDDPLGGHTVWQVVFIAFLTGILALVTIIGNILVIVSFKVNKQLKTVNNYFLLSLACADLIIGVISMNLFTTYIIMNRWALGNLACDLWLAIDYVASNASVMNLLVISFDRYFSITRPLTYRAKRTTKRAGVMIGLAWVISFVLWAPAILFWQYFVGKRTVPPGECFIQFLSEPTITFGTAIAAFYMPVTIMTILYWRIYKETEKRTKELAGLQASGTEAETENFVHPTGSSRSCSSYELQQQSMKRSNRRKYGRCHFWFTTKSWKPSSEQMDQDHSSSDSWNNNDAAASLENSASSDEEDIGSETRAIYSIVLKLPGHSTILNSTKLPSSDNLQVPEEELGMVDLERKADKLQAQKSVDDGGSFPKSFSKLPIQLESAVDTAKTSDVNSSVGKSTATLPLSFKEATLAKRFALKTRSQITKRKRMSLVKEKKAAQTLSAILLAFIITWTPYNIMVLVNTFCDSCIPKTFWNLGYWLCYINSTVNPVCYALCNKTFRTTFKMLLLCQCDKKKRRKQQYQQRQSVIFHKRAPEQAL

[4] = target: Neuronal acetylcholine receptor; alpha4/beta2 (Rattus norvegicus, UniProt P09483+P12390); assay: Displacement of [3H]-epibatidine from alpha4beta2 nAChR in rat cortex hippocampus; type: tissue-based
Neuronal acetylcholine receptor; alpha4/beta2 (Rattus norvegicus, UniProt P09483+P12390), sequence (P09483 whole entry): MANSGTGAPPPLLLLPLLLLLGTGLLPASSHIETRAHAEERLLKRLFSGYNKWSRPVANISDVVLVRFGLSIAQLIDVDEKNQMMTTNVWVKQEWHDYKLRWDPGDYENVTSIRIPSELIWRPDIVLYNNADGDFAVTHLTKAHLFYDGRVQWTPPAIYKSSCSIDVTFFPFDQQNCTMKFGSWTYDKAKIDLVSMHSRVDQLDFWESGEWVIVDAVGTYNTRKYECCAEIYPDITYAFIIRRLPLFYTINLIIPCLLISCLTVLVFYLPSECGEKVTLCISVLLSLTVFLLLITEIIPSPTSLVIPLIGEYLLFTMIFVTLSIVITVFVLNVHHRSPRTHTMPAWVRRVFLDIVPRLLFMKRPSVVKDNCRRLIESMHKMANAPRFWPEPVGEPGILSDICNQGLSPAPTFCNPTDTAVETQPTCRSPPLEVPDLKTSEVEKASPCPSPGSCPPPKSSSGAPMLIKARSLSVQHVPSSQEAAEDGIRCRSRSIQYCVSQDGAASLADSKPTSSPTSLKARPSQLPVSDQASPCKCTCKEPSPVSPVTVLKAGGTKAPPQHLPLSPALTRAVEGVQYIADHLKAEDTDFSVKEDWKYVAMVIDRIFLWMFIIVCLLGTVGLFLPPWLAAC
Neuronal acetylcholine receptor; alpha4/beta2 (Rattus norvegicus, UniProt P09483+P12390), sequence (P12390 whole entry): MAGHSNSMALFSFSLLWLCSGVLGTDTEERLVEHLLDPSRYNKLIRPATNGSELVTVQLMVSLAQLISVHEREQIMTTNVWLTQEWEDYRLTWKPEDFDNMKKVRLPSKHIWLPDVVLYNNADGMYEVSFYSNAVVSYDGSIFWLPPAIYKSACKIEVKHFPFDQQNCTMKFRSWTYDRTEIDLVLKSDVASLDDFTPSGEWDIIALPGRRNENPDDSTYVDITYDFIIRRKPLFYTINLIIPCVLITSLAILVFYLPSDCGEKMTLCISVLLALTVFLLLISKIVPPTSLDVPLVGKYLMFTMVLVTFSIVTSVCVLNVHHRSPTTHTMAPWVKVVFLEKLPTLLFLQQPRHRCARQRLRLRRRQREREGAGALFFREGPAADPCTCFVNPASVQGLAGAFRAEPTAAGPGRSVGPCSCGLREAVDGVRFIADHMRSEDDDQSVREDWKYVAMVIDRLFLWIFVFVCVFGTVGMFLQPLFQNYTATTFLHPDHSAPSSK

[5] = target: Neuronal acetylcholine receptor subunit alpha-7 (Rattus norvegicus, UniProt Q05941); assay: Displacement of [125I]-alpha-bungarotoxin from alpha7 nAChR in rat hippocampus membranes; type: cell membranes, Membrane
Neuronal acetylcholine receptor subunit alpha-7 (Rattus norvegicus, UniProt Q05941), sequence (Q05941 whole entry): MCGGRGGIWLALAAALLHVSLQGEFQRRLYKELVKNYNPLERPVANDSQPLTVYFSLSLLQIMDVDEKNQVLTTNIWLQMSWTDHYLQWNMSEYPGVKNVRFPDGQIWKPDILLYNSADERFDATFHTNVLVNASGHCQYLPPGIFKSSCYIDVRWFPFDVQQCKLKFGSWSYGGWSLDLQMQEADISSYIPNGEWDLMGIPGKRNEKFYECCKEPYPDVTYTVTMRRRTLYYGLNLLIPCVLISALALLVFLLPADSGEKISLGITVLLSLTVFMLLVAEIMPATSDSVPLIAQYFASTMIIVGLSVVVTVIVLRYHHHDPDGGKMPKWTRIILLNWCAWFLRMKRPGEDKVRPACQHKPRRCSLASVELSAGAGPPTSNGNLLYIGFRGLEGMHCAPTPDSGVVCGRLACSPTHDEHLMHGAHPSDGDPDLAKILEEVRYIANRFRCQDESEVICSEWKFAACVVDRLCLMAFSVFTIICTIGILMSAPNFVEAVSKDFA

[6] = target: T3, Muscarinic acetylcholine receptor M2 (Homo sapiens, UniProt P08172); assay: Displacement of [3H]NMS from human muscarinic M2 receptor expressed in CHO cells
T3 sequence (P08172 whole entry): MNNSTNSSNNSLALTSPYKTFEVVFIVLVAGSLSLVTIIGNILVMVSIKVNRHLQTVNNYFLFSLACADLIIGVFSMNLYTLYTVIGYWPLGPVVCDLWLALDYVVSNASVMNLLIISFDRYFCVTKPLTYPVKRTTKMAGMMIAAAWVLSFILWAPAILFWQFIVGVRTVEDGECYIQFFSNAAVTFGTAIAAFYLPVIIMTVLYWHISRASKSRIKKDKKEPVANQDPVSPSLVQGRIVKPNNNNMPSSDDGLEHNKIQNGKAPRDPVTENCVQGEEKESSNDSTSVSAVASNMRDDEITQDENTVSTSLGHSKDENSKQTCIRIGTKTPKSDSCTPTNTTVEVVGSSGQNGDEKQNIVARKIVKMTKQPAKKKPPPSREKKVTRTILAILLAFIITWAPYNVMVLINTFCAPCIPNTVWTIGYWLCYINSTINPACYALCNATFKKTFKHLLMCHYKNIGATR

[7] = target: T4, Muscarinic acetylcholine receptor M5 (Homo sapiens, UniProt P08912); assay: Displacement of [3H]NMS from human muscarinic M5 receptor expressed in CHO cells
T4 sequence (P08912 whole entry): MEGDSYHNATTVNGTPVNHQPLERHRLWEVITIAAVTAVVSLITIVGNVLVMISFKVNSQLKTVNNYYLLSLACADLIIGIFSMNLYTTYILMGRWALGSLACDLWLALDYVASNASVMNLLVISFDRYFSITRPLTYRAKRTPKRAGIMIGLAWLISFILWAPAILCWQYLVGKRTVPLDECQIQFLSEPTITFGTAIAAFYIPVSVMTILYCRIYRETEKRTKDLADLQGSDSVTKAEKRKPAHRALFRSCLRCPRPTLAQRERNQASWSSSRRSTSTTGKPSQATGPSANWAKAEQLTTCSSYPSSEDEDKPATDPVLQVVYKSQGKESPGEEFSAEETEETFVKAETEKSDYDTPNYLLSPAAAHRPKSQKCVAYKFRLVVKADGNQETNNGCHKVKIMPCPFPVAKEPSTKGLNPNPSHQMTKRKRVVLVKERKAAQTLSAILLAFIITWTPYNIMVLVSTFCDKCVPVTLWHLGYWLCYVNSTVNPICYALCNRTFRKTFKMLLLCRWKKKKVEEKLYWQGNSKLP

[8] = target: Muscarinic acetylcholine receptor; assay: Binding affinity to muscarinic M1/M5 receptor (unknown origin); type: protein assay, Homo sapiens
[9] = target: Neuronal acetylcholine receptor; alpha4/beta2 (Homo sapiens, UniProt P17787+P43681); assay: Binding affinity to alpha4beta2 nAChR (unknown origin); type: protein-complex assay
Neuronal acetylcholine receptor; alpha4/beta2 (Homo sapiens, UniProt P17787+P43681), sequence (P17787 whole entry): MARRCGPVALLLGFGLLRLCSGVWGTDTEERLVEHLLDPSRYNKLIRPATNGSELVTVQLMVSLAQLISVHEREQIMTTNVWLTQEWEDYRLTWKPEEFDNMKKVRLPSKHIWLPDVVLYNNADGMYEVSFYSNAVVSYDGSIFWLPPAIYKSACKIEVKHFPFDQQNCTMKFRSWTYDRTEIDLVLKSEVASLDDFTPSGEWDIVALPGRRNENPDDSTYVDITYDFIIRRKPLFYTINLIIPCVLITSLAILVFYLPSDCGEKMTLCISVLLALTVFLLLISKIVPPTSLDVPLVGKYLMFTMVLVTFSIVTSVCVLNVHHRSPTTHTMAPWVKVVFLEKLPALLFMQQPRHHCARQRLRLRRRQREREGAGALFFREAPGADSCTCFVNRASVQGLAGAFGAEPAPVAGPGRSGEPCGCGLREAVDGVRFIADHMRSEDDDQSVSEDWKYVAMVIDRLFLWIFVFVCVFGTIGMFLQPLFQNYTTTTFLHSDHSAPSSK
Neuronal acetylcholine receptor; alpha4/beta2 (Homo sapiens, UniProt P17787+P43681), sequence (P43681 whole entry): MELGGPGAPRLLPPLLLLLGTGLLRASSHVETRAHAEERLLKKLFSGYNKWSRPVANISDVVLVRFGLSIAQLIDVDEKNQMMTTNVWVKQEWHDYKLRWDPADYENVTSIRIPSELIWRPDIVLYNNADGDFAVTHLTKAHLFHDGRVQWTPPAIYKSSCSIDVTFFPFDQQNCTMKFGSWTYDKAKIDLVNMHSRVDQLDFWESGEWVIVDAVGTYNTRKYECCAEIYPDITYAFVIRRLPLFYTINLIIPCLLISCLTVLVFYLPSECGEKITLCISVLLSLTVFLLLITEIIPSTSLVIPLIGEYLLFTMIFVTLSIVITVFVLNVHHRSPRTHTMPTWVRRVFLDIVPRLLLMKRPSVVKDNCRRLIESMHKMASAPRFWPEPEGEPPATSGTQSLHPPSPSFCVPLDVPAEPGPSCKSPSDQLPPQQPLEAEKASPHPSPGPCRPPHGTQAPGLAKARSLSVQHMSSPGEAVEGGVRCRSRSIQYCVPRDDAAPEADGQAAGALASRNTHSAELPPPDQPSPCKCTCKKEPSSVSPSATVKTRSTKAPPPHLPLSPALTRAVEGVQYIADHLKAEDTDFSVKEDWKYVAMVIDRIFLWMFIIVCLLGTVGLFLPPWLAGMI

[10] = target: Neuronal acetylcholine receptor subunit alpha-7 (Homo sapiens, UniProt P36544); assay: Binding affinity to alpha7 nAChR (unknown origin)
Neuronal acetylcholine receptor subunit alpha-7 (Homo sapiens, UniProt P36544), sequence (P36544 whole entry): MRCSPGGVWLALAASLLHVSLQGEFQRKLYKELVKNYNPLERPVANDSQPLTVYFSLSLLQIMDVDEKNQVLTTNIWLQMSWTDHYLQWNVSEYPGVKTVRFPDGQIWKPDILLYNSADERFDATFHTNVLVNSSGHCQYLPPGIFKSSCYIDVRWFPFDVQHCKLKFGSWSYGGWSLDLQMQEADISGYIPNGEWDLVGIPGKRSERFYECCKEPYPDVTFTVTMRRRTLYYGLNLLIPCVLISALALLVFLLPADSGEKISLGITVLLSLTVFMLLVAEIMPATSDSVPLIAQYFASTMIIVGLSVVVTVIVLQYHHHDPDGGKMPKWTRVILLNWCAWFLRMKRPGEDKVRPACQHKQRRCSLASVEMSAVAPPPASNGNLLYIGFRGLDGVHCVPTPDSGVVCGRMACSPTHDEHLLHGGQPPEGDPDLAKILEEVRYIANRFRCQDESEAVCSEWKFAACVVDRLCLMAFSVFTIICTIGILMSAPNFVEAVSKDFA

`CN1CCC[C@H]1[C@H]1COC(=O)N1` gave a pKi [1] of under 4.00, a pKi [2] of under 4.00 and a pKi [3] of under 4.00. For the same compound, the pKi [4] was 4.85, the pKi [5] was 4.30 and the pKi [6] was under 4.00. The pKi [7] was under 4.00.
With `CN1C[C@H](C[N+](C)(C)C)OC1=O` the pKi [1] was under 4.00, the pKi [2] was under 4.00 and the pKi [3] was under 4.00. It also gave a pKi [4] of 5.51, a pKi [5] of 4.73 and a pKi [6] of under 4.00. It also gave a pKi [7] of under 4.00.
With `CC(C[N+](C)(C)C)OC(N)=O` (stereo not drawn) [BETHANECHOL] the Ki [8] was 0.097 µM.
Compound `CN1CCC[C@H]1[C@@H]1COC(=O)N1` has a pKi [1] of under 4.00, a pKi [2] of under 4.00 and a pKi [3] of under 4.00. For the same compound, the pKi [4] was 5.05, the pKi [5] was 4.19 and the pKi [6] was under 4.00. For the same compound, the pKi [7] was under 4.00.
`CN(C)C(=O)OCC[N+](C)(C)C` gave a pKi [9] of 7.70 and a Ki [8] of 1.2 µM.
`C[N+](C)(C)CCOC(N)=O` [CARBAMOYLCHOLINE] was tested, and the pKi [10] was 4.18.
For `CN(C)C[C@@H]1CN(C)C(=O)O1`, the pKi [1] was under 4.00, the pKi [2] was under 4.00 and the pKi [3] was under 4.00. The pKi [4] was 5.58, the pKi [5] was 3.35 and the pKi [6] was under 4.00. The pKi [7] was under 4.00.
`CN1CCC[C@H]1[C@@H]1CNC(=O)O1` was tested, and the pKi [1] was under 4.00, the pKi [2] was under 4.00 and the pKi [3] was under 4.00. The pKi [6] was under 4.00 and the pKi [7] was under 4.00.
`C[N+](C)(C)C[C@@H]1CNC(=O)O1` showed a pKi [1] of under 4.00, a pKi [2] of under 4.00 and a pKi [3] of under 4.00. It also gave a pKi [4] of 6.37, a pKi [5] of 4.35 and a pKi [6] of under 4.00. For the same compound, the pKi [7] was under 4.00.
For `CN(C)C[C@H]1CNC(=O)O1`, the pKi [1] was under 4.00, the pKi [2] was under 4.00 and the pKi [3] was under 4.00. The pKi [4] was 6.35, the pKi [5] was 4.39 and the pKi [6] was under 4.00. The pKi [7] was under 4.00.
For `CN1C[C@@H](C[N+](C)(C)C)OC1=O`, the pKi [1] was under 4.00, the pKi [2] was under 4.00 and the pKi [3] was under 4.00. For the same compound, the pKi [4] was 5.44, the pKi [5] was 4.52 and the pKi [6] was under 4.00. For the same compound, the pKi [7] was under 4.00.
Compound `CN1CCC[C@H]1COC(N)=O` has a pKi [1] of under 4.00, a pKi [2] of under 4.00 and a pKi [3] of under 4.00. For the same compound, the pKi [4] was 6.16, the pKi [5] was 4.11 and the pKi [6] was under 4.00. For the same compound, the pKi [7] was under 4.00.
`CNC(=O)OCC[N+](C)(C)C` showed a pKi [9] of 7.64, a Ki [8] of 0.15 µM and a pKi [10] of 4.36.
Compound `C[N+]1(C)CCC[C@H]1COC(N)=O` has a pKi [1] of under 4.00, a pKi [2] of under 4.00 and a pKi [3] of under 4.00. It also gave a pKi [4] of 5.97, a pKi [5] of 5.74 and a pKi [6] of under 4.00. The pKi [7] was under 4.00.
`C[N+](C)(C)C[C@H]1CNC(=O)O1` gave a pKi [1] of under 4.00, a pKi [2] of under 4.00 and a pKi [3] of under 4.00. The pKi [4] was 6.40, the pKi [5] was 4.33 and the pKi [6] was under 4.00. For the same compound, the pKi [7] was under 4.00.
`CN(C)C[C@H]1CN(C)C(=O)O1` gave a pKi [1] of under 4.00, a pKi [2] of under 4.00 and a pKi [3] of under 4.00. For the same compound, the pKi [4] was 5.66, the pKi [5] was 3.80 and the pKi [6] was under 4.00. For the same compound, the pKi [7] was under 4.00.
For `CN(C)CCOC(=O)N(C)C` [2-(DIMETHYLAMINO)ETHYL DIMETHYLCARBAMATE], the pKi [9] was 5.24 and the Ki [8] was 18 µM.
In the case of `CN(C)C[C@@H]1CNC(=O)O1`, the pKi [1] was under 4.00, the pKi [2] was under 4.00 and the pKi [3] was under 4.00. It also gave a pKi [4] of 6.34, a pKi [5] of 4.03 and a pKi [6] of under 4.00. It also gave a pKi [7] of under 4.00.
`CN1CCC[C@H]1[C@H]1CNC(=O)O1` was tested, and the pKi [1] was under 4.00, the pKi [2] was under 4.00 and the pKi [3] was under 4.00. For the same compound, the pKi [6] was under 4.00 and the pKi [7] was under 4.00.
